In PubChem BioAssay (NCI) one finds TGI and GI50 data, which are given here for 21 compounds.

Some test systems named below: SR leukemia; SF-539 CNS; HOP-92 NSCLC; PC-3 prostate; MALME-3M melanoma; HCC-2998 colon; OVCAR-5 ovarian; LOX IMVI melanoma; SW-620 colon; MOLT-4 leukemia; MDA-N; KM12 colon.
Common to all, as to assay: NCI anticancer screen, dose series, 48 h

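Five concentrations, 48 hours, 96-well plates. At the GI50, growth is halved. TGI marks complete inhibition of growth.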

In the case of `c1ccc(-c2nn(-c3ccccc3)[n+](-c3ccccc3)n2)cc1`, the TGI with SR leukemia is > 44.4 µM; in the experiment with SF-539 CNS, > 100 µM; in the experiment with HOP-92 NSCLC it was 96.3 µM; in the experiment with PC-3 prostate it was > 20.7 µM; in the experiment on MALME-3M melanoma, 2.93 µM; in the experiment on HCC-2998 colon it was 23.7 µM. Further, the TGI in the experiment with OVCAR-5 ovarian is > 100 µM; with LOX IMVI melanoma it was > 92.4 µM; in the experiment with SW-620 colon it was > 100 µM; in the experiment on MOLT-4 leukemia, > 100 µM; in the experiment with MDA-N it was 31.5 µM; in the experiment on KM12 colon, > 81.7 µM.

Regarding `CCC(C)C(=O)c1c(O)c(C/C=C(\C)CCC=C(C)C)c(O)c2c(C(O)CC)cc(=O)oc12` (stereo not drawn), the TGI in the experiment with SR leukemia stood at 3.48 µM; with SF-539 CNS, 7.43 µM; with HOP-92 NSCLC it was 5.47 µM; in the experiment with MALME-3M melanoma, 5.28 µM; in the experiment with HCC-2998 colon it was 2.09 µM; with OVCAR-5 ovarian it was 17.9 µM. Further, the TGI is 12.6 µM in the experiment on LOX IMVI melanoma, 14 µM with SW-620 colon, 3.94 µM in the experiment on MOLT-4 leukemia and 11.4 µM with KM12 colon.

Turning to `CC[n+]1c(/C=C/c2ccc(N(CCCl)CCCl)cc2)ccc2cc(NC(=O)/C=C/c3ccccc3)ccc21`, the TGI with SR leukemia worked out at 0.728 µM; in the experiment on SF-539 CNS, 2.03 µM; in the experiment with HOP-92 NSCLC it was 1.07 µM; in the experiment on PC-3 prostate, 1.09 µM; in the experiment with MALME-3M melanoma it was 0.81 µM; with HCC-2998 colon, 1.37 µM. Besides, the TGI was 6.03 µM in the experiment with OVCAR-5 ovarian; 1.51 µM in the experiment on LOX IMVI melanoma; 0.67 µM in the experiment on SW-620 colon; 1.69 µM in the experiment on MOLT-4 leukemia; 1.7 µM in the experiment on MDA-N; 1.58 µM with KM12 colon.

Regarding `Cn1c(-c2ccc(/C=N\N3CCN(/N=C/c4ccc(-c5c[n+]6ccccc6n5C)cc4)CC3)cc2)c[n+]2ccccc12`, the TGI with SR leukemia is > 100 µM; with SF-539 CNS, > 100 µM; in the experiment with HOP-92 NSCLC, 84.6 µM; with PC-3 prostate, > 100 µM; with OVCAR-5 ovarian, > 100 µM; with LOX IMVI melanoma, > 100 µM. In addition, the TGI with SW-620 colon, with MOLT-4 leukemia, in the experiment with MDA-N and in the experiment on KM12 colon was > 100 µM throughout.

For the compound `COc1ccc(CC(C)N)cc1` (stereo not drawn), the TGI in the experiment with SR leukemia, in the experiment on SF-539 CNS, in the experiment on HOP-92 NSCLC, in the experiment with MALME-3M melanoma, in the experiment on HCC-2998 colon and in the experiment with OVCAR-5 ovarian was > 100 µM throughout. The TGI with LOX IMVI melanoma, in the experiment on SW-620 colon, in the experiment with MOLT-4 leukemia and in the experiment on KM12 colon was > 100 µM each time.

For the compound `CC1(C)N=C(N)N=C(N)N1c1cccc(OCCOc2ccc([N+](=O)[O-])cc2)c1`, the TGI in the experiment with SR leukemia, with SF-539 CNS, in the experiment on HOP-92 NSCLC, in the experiment with PC-3 prostate, in the experiment on MALME-3M melanoma and in the experiment with OVCAR-5 ovarian was > 100 µM throughout. Moreover, the TGI in the experiment on LOX IMVI melanoma, in the experiment with SW-620 colon, in the experiment on MOLT-4 leukemia, in the experiment with MDA-N and with KM12 colon was > 100 µM each time.

`COc1cc(C2c3cc4c(cc3[C@@H](Nc3cccc(C(C)=O)c3)C3COC(=O)[C@H]23)OCO4)cc(OC)c1O` (stereo partly drawn): the TGI was 1.24 µM with SF-539 CNS; 14.8 µM in the experiment on HOP-92 NSCLC; 15 µM with MALME-3M melanoma; 3.23 µM with HCC-2998 colon; > 59.7 µM with OVCAR-5 ovarian; 4.38 µM with LOX IMVI melanoma. The TGI with SW-620 colon was > 38.2 µM; in the experiment with MOLT-4 leukemia, 0.129 µM; in the experiment on KM12 colon, 5.67 µM.

Consider `O=[N+]([O-])c1cn[n+]([O-])c2ccccc12`, for which the TGI turned out to be 22.7 µM in the experiment on SF-539 CNS; 28.4 µM in the experiment on HOP-92 NSCLC; 23.3 µM in the experiment on PC-3 prostate; 29.4 µM with MALME-3M melanoma; 3.44 µM in the experiment on HCC-2998 colon; 25.6 µM in the experiment with OVCAR-5 ovarian. Besides, the TGI with LOX IMVI melanoma came to 20.9 µM; in the experiment on SW-620 colon it was 4.91 µM; in the experiment with MDA-N it was 27.5 µM; in the experiment with KM12 colon, 18.4 µM.

In the case of `Brc1ccccc1-c1ncc(-c2ccccc2)o1`, the TGI in the experiment with SF-539 CNS is 77.1 µM; with HOP-92 NSCLC, 46.3 µM; in the experiment with PC-3 prostate, > 100 µM; with MALME-3M melanoma, 76.3 µM; with HCC-2998 colon, 80.4 µM; with OVCAR-5 ovarian it was > 100 µM. The TGI with LOX IMVI melanoma is 34.1 µM; in the experiment on SW-620 colon, > 100 µM; with MOLT-4 leukemia, 49.6 µM; in the experiment on MDA-N it was > 100 µM; in the experiment with KM12 colon, 41.7 µM.

Turning to `COc1ccc(NC(=O)/C(CC2=Nc3ccc([N+](=O)[O-])cc3NC2O)=N\NC(=O)C[N+](C)(C)C)c(OC)c1` (stereo not drawn), the TGI is 48.6 µM in the experiment on SR leukemia; > 100 µM with SF-539 CNS; > 100 µM in the experiment on HOP-92 NSCLC; > 100 µM in the experiment with PC-3 prostate; > 100 µM with HCC-2998 colon; > 100 µM with OVCAR-5 ovarian. The TGI with LOX IMVI melanoma, in the experiment with SW-620 colon, in the experiment with MOLT-4 leukemia, with MDA-N and in the experiment with KM12 colon was > 100 µM throughout.

Turning to `COc1ccc(-c2cc(N3CCN(c4ccccc4)CC3)c(C#N)c(=O)o2)cc1`, the TGI is > 100 µM in the experiment on SR leukemia; 41.5 µM with SF-539 CNS; > 100 µM in the experiment with HOP-92 NSCLC; 53.7 µM in the experiment with MALME-3M melanoma; > 100 µM in the experiment on HCC-2998 colon; > 100 µM in the experiment on OVCAR-5 ovarian. Moreover, the TGI in the experiment on LOX IMVI melanoma, in the experiment with SW-620 colon, in the experiment with MOLT-4 leukemia and in the experiment on KM12 colon was > 100 µM throughout.

In the case of `Cc1ccc(S(N)(=O)=O)cc1`, the TGI in the experiment with SR leukemia, in the experiment on SF-539 CNS, with HOP-92 NSCLC, in the experiment with PC-3 prostate, in the experiment with MALME-3M melanoma and in the experiment on HCC-2998 colon was > 1000 µM each time. Also, the TGI in the experiment on OVCAR-5 ovarian, with LOX IMVI melanoma, in the experiment on SW-620 colon, in the experiment on MOLT-4 leukemia, with MDA-N and in the experiment with KM12 colon was > 1000 µM in each case.

For `CN(C)c1ccc(N=Nc2ccccn2)cc1`, the TGI with SF-539 CNS is > 100 µM; in the experiment on HOP-92 NSCLC, > 100 µM; in the experiment with PC-3 prostate, 81.9 µM; in the experiment on MALME-3M melanoma, > 100 µM; with HCC-2998 colon it was 59.7 µM; in the experiment with OVCAR-5 ovarian it was > 100 µM. Also, the TGI was > 100 µM in the experiment with LOX IMVI melanoma; > 100 µM with SW-620 colon; 40.9 µM in the experiment on MOLT-4 leukemia; > 100 µM with MDA-N; > 100 µM in the experiment on KM12 colon.

Turning to `N#Cc1c(NC(=S)NC(=O)c2ccccc2)nc2c(c1-c1ccccc1)CCCC2`, the TGI in the experiment with SR leukemia, in the experiment with PC-3 prostate, in the experiment with OVCAR-5 ovarian, with LOX IMVI melanoma, with SW-620 colon and in the experiment with MOLT-4 leukemia was > 100 µM each time. The TGI in the experiment with MDA-N and with KM12 colon was > 100 µM in each case.

Consider `NCc1ccccc1C1CSCSC1`, for which the TGI with SF-539 CNS, in the experiment on MALME-3M melanoma, in the experiment on LOX IMVI melanoma, in the experiment on SW-620 colon, in the experiment with MOLT-4 leukemia and in the experiment with KM12 colon was > 100 µM each time.

Turning to `CC(C)(Br)C1(O)CCCN1C(=O)c1ccccc1` (stereo not drawn), the TGI in the experiment with SR leukemia, in the experiment with SF-539 CNS, in the experiment with HOP-92 NSCLC, in the experiment with MALME-3M melanoma, in the experiment on HCC-2998 colon and in the experiment on OVCAR-5 ovarian was > 100 µM each time. For the same compound, the TGI with LOX IMVI melanoma, in the experiment on SW-620 colon, with MOLT-4 leukemia and in the experiment with KM12 colon was > 100 µM each time.

On to `C=C1C(=O)OC2C1CC(O)/C(C)=C\CCC1(C)OC21` (stereo not drawn), for which the TGI is 61.2 µM in the experiment on SR leukemia; > 100 µM with SF-539 CNS; > 100 µM with HOP-92 NSCLC; > 100 µM with PC-3 prostate; 45.4 µM with MALME-3M melanoma; 79.9 µM in the experiment with HCC-2998 colon. Besides, the TGI with OVCAR-5 ovarian is 75 µM; in the experiment on LOX IMVI melanoma, 78.7 µM; in the experiment with SW-620 colon, > 100 µM; in the experiment on MOLT-4 leukemia, 79.3 µM; in the experiment on MDA-N it was 36.2 µM; with KM12 colon it was > 100 µM.

Take `C#CC[C@@H]1C[C@]2(C)[C@H]3CC=C4[C@H]5CC(C)(C)CC[C@]5(C(=O)NCCCCN)CC[C@@]4(C)[C@]3(C)CC[C@H]2C(C)(C)[C@H]1OC(C)=O`: the GI50 in the experiment with SF-539 CNS was 1.68 µM; in the experiment with HOP-92 NSCLC, 1.33 µM; with PC-3 prostate, 1.55 µM; with MALME-3M melanoma, 1.55 µM; in the experiment with OVCAR-5 ovarian it was 1.62 µM; in the experiment with SW-620 colon, 1.71 µM. Further, the GI50 in the experiment with KM12 colon was 1.68 µM. The TGI worked out at 3.1 µM in the experiment with SF-539 CNS; 2.81 µM in the experiment on HOP-92 NSCLC; 2.93 µM in the experiment with PC-3 prostate; 3.04 µM in the experiment with MALME-3M melanoma; 2.99 µM in the experiment with OVCAR-5 ovarian; 3.39 µM with SW-620 colon. Further, the TGI with KM12 colon is 3.18 µM.

On to `NCc1ccc(C(=O)O)cc1`, for which the TGI with SR leukemia, with HOP-92 NSCLC, in the experiment with PC-3 prostate, with MALME-3M melanoma, with HCC-2998 colon and in the experiment with OVCAR-5 ovarian was > 100 µM each time. Also, the TGI with LOX IMVI melanoma, in the experiment on SW-620 colon, with MOLT-4 leukemia, in the experiment with MDA-N and in the experiment with KM12 colon was > 100 µM throughout.

In the case of `CCO/N=[N+](\[O-])N(CC)CC`, the TGI with SR leukemia, with SF-539 CNS, in the experiment with HOP-92 NSCLC, in the experiment on HCC-2998 colon, with OVCAR-5 ovarian and in the experiment on LOX IMVI melanoma was > 100 µM in each case. In addition, the TGI with SW-620 colon, with MOLT-4 leukemia and in the experiment with KM12 colon was > 100 µM in each case.

With `COc1cc[n+](C)cc1`, the TGI with SF-539 CNS, in the experiment with HOP-92 NSCLC, with MALME-3M melanoma, in the experiment on HCC-2998 colon, in the experiment on OVCAR-5 ovarian and in the experiment on LOX IMVI melanoma was > 100 µM in each case. Also, the TGI in the experiment with SW-620 colon, with MOLT-4 leukemia and with KM12 colon was > 100 µM each time.
